Several values for one entry are separate records, joined by “and”; a condition that tells them apart may be missing. Equal values may be shown once.
Legend:
[1] = biological target: panel of 320 non-olfactory GPCRs (Homo sapiens, UniProt O15218); assay type: cell-based
[2] = biological target: panel of 320 non-olfactory GPCRs (Homo sapiens, UniProt P25025); assay type: cell-based
[3] = biological target: panel of 320 non-olfactory GPCRs (Homo sapiens, UniProt P25101); assay type: cell-based
[4] = biological target: panel of 320 non-olfactory GPCRs (Homo sapiens, UniProt P25116); assay type: cell-based
[5] = biological target: panel of 320 non-olfactory GPCRs (Homo sapiens, UniProt P28335); assay type: cell-based
[6] = biological target: panel of 320 non-olfactory GPCRs (Homo sapiens, UniProt P28335, I156V/I160V); assay type: cell-based
[7] = biological target: panel of 320 non-olfactory GPCRs (Homo sapiens, UniProt P28335, I156V/I160V/N158G); assay type: cell-based
[8] = biological target: panel of 320 non-olfactory GPCRs (Homo sapiens, UniProt P29275); assay type: cell-based
Chain of panel of 320 non-olfactory GPCRs (Homo sapiens, UniProt P29275) (P29275 whole entry): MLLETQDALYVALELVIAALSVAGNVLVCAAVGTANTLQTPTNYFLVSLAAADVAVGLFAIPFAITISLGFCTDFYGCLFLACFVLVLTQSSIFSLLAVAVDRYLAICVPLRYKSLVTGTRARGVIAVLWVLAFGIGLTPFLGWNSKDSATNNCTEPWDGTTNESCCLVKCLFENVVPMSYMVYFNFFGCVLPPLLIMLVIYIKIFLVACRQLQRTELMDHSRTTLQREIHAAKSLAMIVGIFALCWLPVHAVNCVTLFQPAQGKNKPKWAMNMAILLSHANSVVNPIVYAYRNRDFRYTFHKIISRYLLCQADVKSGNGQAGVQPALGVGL

[9] = biological target: panel of 320 non-olfactory GPCRs (Homo sapiens, UniProt P32249); assay type: cell-based
Chain of panel of 320 non-olfactory GPCRs (Homo sapiens, UniProt P32249) (P32249 whole entry): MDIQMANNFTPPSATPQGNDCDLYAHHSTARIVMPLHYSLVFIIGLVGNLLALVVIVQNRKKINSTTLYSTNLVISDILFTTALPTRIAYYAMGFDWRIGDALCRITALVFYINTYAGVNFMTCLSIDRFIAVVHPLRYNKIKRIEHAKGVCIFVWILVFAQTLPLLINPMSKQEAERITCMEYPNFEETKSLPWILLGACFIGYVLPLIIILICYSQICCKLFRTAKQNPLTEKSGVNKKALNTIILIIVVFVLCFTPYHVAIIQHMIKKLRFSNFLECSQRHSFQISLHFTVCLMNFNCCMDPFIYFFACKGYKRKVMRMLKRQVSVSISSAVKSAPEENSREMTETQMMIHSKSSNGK

[10] = biological target: panel of 320 non-olfactory GPCRs (Homo sapiens, UniProt P32745); assay type: cell-based
[11] = biological target: panel of 320 non-olfactory GPCRs (Homo sapiens, UniProt P33032); assay type: cell-based
[12] = biological target: panel of 320 non-olfactory GPCRs (Homo sapiens, UniProt P35410); assay type: cell-based
[13] = biological target: panel of 320 non-olfactory GPCRs (Homo sapiens, UniProt P35414); assay type: cell-based
[14] = biological target: panel of 320 non-olfactory GPCRs (Homo sapiens, UniProt P37288); assay type: cell-based
[15] = biological target: panel of 320 non-olfactory GPCRs (Homo sapiens, UniProt P41143); assay type: cell-based
Chain of panel of 320 non-olfactory GPCRs (Homo sapiens, UniProt P41143) (P41143 whole entry): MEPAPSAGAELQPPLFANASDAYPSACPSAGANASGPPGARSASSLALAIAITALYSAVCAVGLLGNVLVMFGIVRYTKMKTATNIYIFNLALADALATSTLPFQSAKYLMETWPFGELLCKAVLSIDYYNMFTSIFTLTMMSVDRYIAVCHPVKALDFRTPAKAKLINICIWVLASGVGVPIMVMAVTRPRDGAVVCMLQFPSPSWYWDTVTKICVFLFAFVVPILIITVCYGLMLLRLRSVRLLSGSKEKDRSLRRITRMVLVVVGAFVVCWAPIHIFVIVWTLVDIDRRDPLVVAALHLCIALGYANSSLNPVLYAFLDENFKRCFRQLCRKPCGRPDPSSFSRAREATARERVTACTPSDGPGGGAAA

[16] = biological target: panel of 320 non-olfactory GPCRs (Homo sapiens, UniProt P41594); assay type: cell-based
[17] = biological target: panel of 320 non-olfactory GPCRs (Homo sapiens, UniProt P41595); assay type: cell-based
[18] = biological target: panel of 320 non-olfactory GPCRs (Homo sapiens, UniProt P41968); assay type: cell-based
Chain of panel of 320 non-olfactory GPCRs (Homo sapiens, UniProt P41968) (P41968 whole entry): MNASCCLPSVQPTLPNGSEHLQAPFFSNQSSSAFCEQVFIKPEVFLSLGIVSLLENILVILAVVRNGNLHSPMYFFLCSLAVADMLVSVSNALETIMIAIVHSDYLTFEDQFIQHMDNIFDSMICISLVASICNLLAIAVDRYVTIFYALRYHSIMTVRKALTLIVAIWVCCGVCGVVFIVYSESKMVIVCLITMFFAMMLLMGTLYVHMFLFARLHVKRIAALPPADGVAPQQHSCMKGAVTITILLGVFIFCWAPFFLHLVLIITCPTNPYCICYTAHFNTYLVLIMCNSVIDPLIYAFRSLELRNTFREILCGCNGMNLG

[19] = biological target: panel of 320 non-olfactory GPCRs (Homo sapiens, UniProt P46089); assay type: cell-based
[20] = biological target: panel of 320 non-olfactory GPCRs (Homo sapiens, UniProt P51679); assay type: cell-based
Chain of panel of 320 non-olfactory GPCRs (Homo sapiens, UniProt P51679) (P51679 whole entry): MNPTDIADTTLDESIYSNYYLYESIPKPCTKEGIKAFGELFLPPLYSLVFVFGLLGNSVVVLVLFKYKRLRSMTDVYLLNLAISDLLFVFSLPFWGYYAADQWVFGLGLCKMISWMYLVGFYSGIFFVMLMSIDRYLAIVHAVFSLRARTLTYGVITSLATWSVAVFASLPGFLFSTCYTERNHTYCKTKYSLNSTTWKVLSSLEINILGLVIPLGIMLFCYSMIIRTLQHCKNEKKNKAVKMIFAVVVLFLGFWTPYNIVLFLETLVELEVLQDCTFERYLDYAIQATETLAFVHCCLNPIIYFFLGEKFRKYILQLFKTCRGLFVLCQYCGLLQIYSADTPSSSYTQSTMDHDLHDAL

[21] = biological target: panel of 320 non-olfactory GPCRs (Homo sapiens, UniProt Q13304); assay type: cell-based
[22] = biological target: panel of 320 non-olfactory GPCRs (Homo sapiens, UniProt Q15077); assay type: cell-based
Chain of panel of 320 non-olfactory GPCRs (Homo sapiens, UniProt Q15077) (Q15077 whole entry): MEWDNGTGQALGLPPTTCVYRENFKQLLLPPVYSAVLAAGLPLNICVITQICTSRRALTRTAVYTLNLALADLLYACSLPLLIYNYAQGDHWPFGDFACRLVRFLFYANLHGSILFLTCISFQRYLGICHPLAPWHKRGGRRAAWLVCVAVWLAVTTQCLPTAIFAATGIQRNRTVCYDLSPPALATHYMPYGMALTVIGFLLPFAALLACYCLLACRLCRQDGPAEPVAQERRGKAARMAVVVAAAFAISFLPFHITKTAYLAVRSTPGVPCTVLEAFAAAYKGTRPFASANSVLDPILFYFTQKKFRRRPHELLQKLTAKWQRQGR

[23] = biological target: panel of 320 non-olfactory GPCRs (Homo sapiens, UniProt Q16538); assay type: cell-based
[24] = biological target: panel of 320 non-olfactory GPCRs (Homo sapiens, UniProt Q5UAW9); assay type: cell-based
[25] = biological target: panel of 320 non-olfactory GPCRs (Homo sapiens, UniProt Q86SQ6); assay type: cell-based
Chain of panel of 320 non-olfactory GPCRs (Homo sapiens, UniProt Q86SQ6) (Q86SQ6 whole entry): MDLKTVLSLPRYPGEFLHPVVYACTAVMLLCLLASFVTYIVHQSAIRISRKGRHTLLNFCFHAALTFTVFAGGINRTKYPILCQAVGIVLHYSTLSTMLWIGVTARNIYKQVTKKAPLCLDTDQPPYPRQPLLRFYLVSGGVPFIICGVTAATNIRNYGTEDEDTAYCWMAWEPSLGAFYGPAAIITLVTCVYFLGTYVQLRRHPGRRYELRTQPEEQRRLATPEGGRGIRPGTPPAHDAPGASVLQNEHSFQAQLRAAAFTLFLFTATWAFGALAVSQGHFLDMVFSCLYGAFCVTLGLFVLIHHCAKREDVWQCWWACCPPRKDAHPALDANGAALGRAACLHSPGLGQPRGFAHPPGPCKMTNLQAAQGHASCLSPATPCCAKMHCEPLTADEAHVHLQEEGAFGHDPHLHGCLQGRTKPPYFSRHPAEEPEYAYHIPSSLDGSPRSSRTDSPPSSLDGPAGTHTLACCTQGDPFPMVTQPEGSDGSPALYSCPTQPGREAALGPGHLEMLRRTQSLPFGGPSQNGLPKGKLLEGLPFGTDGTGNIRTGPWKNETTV

[26] = biological target: panel of 320 non-olfactory GPCRs (Homo sapiens, UniProt Q8IZF3); assay type: cell-based
[27] = biological target: panel of 320 non-olfactory GPCRs (Homo sapiens, UniProt Q8TDS4); assay type: cell-based
[28] = biological target: panel of 320 non-olfactory GPCRs (Homo sapiens, UniProt Q969N4); assay type: cell-based
Chain of panel of 320 non-olfactory GPCRs (Homo sapiens, UniProt Q969N4) (Q969N4 whole entry): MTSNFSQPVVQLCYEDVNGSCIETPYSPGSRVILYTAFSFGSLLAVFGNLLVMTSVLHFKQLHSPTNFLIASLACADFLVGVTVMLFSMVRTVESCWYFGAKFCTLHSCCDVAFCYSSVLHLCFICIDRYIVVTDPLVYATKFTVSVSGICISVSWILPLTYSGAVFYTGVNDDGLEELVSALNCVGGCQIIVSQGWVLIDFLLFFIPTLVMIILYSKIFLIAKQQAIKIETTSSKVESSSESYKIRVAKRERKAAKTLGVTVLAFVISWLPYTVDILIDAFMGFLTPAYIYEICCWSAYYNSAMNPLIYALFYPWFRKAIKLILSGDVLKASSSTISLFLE

[29] = biological target: panel of 320 non-olfactory GPCRs (Homo sapiens, UniProt Q96LB1); assay type: cell-based
[30] = biological target: panel of 320 non-olfactory GPCRs (Homo sapiens, UniProt Q96P68); assay type: cell-based
Chain of panel of 320 non-olfactory GPCRs (Homo sapiens, UniProt Q96P68) (Q96P68 whole entry): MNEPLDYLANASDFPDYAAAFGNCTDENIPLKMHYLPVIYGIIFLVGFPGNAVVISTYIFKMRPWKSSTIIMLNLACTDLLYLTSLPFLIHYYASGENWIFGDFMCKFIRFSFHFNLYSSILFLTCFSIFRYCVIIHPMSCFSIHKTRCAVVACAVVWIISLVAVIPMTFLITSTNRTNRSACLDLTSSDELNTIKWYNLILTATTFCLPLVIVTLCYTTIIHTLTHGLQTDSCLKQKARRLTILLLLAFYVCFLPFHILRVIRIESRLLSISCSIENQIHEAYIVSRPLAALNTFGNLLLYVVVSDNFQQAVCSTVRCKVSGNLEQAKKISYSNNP

[31] = biological target: panel of 320 non-olfactory GPCRs (Homo sapiens, UniProt Q99788); assay type: cell-based
Chain of panel of 320 non-olfactory GPCRs (Homo sapiens, UniProt Q99788) (Q99788 whole entry): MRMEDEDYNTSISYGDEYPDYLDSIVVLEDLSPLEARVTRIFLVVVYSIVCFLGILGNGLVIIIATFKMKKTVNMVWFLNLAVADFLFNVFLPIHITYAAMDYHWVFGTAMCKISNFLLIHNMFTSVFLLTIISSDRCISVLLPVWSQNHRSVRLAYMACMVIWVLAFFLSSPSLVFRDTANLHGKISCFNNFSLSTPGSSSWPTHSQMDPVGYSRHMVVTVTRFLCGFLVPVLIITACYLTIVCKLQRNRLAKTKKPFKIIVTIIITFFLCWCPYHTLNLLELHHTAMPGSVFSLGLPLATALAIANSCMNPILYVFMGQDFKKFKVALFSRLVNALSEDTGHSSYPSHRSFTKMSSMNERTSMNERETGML

[32] = biological target: panel of 320 non-olfactory GPCRs (Homo sapiens, UniProt Q9BXC1); assay type: cell-based
[33] = biological target: panel of 320 non-olfactory GPCRs (Homo sapiens, UniProt Q9P296); assay type: cell-based
Chain of panel of 320 non-olfactory GPCRs (Homo sapiens, UniProt Q9P296) (Q9P296 whole entry): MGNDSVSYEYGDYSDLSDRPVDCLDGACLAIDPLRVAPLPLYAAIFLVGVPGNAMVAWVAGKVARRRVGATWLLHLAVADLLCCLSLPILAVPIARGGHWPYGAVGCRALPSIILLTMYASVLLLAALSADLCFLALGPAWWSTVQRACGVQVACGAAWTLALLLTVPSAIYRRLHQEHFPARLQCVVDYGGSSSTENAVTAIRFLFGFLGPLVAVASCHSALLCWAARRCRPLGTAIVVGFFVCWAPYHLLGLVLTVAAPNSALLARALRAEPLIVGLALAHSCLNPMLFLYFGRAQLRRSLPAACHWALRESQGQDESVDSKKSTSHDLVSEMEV

[34] = biological target: panel of 320 non-olfactory GPCRs (Homo sapiens, UniProt Q9Y5X5); assay type: cell-based
Chain of panel of 320 non-olfactory GPCRs (Homo sapiens, UniProt Q9Y5X5) (Q9Y5X5 whole entry): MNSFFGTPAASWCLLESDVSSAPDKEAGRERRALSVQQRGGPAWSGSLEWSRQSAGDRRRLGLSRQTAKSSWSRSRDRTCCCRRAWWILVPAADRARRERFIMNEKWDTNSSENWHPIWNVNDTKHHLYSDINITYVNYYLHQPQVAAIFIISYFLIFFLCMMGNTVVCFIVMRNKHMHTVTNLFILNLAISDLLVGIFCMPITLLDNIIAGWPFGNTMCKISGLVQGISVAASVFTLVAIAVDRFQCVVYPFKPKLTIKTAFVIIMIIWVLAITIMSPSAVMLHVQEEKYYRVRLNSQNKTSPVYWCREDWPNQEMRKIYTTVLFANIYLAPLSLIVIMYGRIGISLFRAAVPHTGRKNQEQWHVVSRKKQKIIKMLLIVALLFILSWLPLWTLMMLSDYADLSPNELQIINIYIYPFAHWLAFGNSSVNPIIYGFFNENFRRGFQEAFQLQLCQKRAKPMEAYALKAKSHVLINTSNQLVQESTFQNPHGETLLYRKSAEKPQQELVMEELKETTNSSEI

[35] = biological target: panel of 320 non-olfactory GPCRs (Homo sapiens, UniProt Q9Y5Y3); assay type: cell-based
[36] = biological target: panel of 320 non-olfactory GPCRs (Homo sapiens, UniProt Q9Y5Y4); assay type: cell-based
[37] = system: panel of 320 non-olfactory GPCRs; assay type: cell-based, human

Chain of panel of 320 non-olfactory GPCRs (Homo sapiens, UniProt P25025) (P25025 whole entry): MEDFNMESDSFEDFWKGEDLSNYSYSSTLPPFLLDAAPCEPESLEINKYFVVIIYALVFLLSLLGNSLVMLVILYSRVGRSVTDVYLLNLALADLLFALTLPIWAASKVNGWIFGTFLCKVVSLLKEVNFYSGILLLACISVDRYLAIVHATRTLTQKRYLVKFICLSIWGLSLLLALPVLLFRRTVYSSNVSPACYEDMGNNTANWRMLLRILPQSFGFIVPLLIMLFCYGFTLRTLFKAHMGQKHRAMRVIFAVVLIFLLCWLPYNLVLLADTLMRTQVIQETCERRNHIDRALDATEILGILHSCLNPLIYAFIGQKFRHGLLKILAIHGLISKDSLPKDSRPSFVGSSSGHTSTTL

COC(=O)[C@@](C)(NC(=O)c1cc(C)n(-c2cccc(C(F)(F)F)c2)n1)c1cccs1 [‘1350]
Fold of Basal RLU [1]: 1.1 fold and 0.8 fold and 1.4 fold
Fold of Basal RLU [2]: 0.8 fold and 1 fold and 1.1 fold
Fold of Basal RLU [3]: 1.1 fold and 0.9 fold and 0.8 fold
Fold of Basal RLU [4]: 1 fold and 1.1 fold and 1.3 fold
Fold of Basal RLU [5]: 1.6 fold and 1 fold and 1.3 fold and 1.2 fold
Fold of Basal RLU [6]: 0.4 and 0.8
Fold of Basal RLU [7]: 0.9 fold and 1.1 fold and 0.7 fold and 1 fold
Fold of Basal RLU [8]: 0.6 and 0.7 and 1.1
Fold of Basal RLU [9]: 0.8 and 0.9 and 1
Fold of Basal RLU [10]: 0.8 and 0.9 and 0.7
Fold of Basal RLU [11]: 1.3 fold and 1 fold and 1.2 fold and 1.1 fold
Fold of Basal RLU [12]: 1.9 and 1.3 and 1 and 1.2
Fold of Basal RLU [13]: 0.9 fold and 1.1 fold and 1.2 fold and 1 fold
Fold of Basal RLU [14]: 0.7 and 1 and 0.9
Fold of Basal RLU [15]: 1 fold and 0.9 fold and 0.8 fold
Fold of Basal RLU [16]: 0.8 and 0.6 and 0.7
Fold of Basal RLU [17]: 0.8 fold and 0.7 fold and 1 fold
Fold of Basal RLU [18]: 1.3 and 0.9 and 1.1 and 0.7
Fold of Basal RLU [19]: 1 fold and 1.1 fold and 1.4 fold and 1.3 fold
Fold of Basal RLU [20]: 1.1 and 1 and 0.9
Fold of Basal RLU [21]: 1 fold and 1.2 fold and 0.8 fold and 1.1 fold
Fold of Basal RLU [22]: 1.4 fold and 1.2 fold and 1.1 fold
Fold of Basal RLU [23]: 0.8 and 1 and 0.6
Fold of Basal RLU [24]: 1.2 and 1.1 and 1 and 1.6
Fold of Basal RLU [25]: 0.9 fold and 1.1 fold and 1.3 fold
Fold of Basal RLU [26]: 1.1 fold and 0.9 fold
Fold of Basal RLU [27]: 1 fold and 0.8 fold
Fold of Basal RLU [28]: 0.6 fold and 0.8 fold and 0.4 fold
Fold of Basal RLU [29]: 1.7 fold and 1.5 fold and 1 fold and 1.1 fold
Fold of Basal RLU [30]: 1.1 fold and 1.3 fold and 1.6 fold
Fold of Basal RLU [31]: 1.1 and 1 and 1.2
Fold of Basal RLU [32]: 0.9 and 1.3 and 1
Fold of Basal RLU [33]: 0.9 fold and 0.8 fold and 1.3 fold and 1.5 fold
Fold of Basal RLU [34]: 0.3
Fold of Basal RLU [35]: 0.8 and 1.2 and 1.3 and 1
Fold of Basal RLU [36]: 1.1 fold and 1.4 fold and 1.5 fold
agonist activity at GPR55, GPR18, GPR119 [37]: no agonist activity
off-target functional activity [37]: little activity was seen

Cc1cc(C(=O)NC(C)(c2ccco2)c2ccco2)nn1-c1cccc(C(F)(F)F)c1 [‘4936]
Fold of Basal RLU [1]: 1.7 fold and 1.9 fold and 1.4 fold and 2.5 fold
Fold of Basal RLU [2]: 1.8 fold and 1.3 fold and 1.4 fold and 1.6 fold
Fold of Basal RLU [3]: 0.9 fold and 0.8 fold and 0.6 fold
Fold of Basal RLU [4]: 1.4 fold and 1.3 fold and 1.1 fold
Fold of Basal RLU [5]: 1.5 fold and 1.3 fold and 1.1 fold
Fold of Basal RLU [6]: 0.7 and 0.4 and 0.8
Fold of Basal RLU [7]: 0.8 fold and 1 fold and 1.3 fold
Fold of Basal RLU [8]: 0.9 and 0.7 and 1 and 0.6
Fold of Basal RLU [9]: 0.9 and 1
Fold of Basal RLU [10]: 1.3 and 0.7 and 1
Fold of Basal RLU [11]: 1.1 fold and 1.2 fold and 1.3 fold and 1 fold
Fold of Basal RLU [12]: 0.8 and 0.4 and 0.6
Fold of Basal RLU [13]: 1.1 fold and 1.4 fold and 1.2 fold
Fold of Basal RLU [14]: 0.9 and 0.7 and 1.1 and 1
Fold of Basal RLU [15]: 0.7 fold and 1.1 fold and 0.6 fold
Fold of Basal RLU [16]: 1.1 and 1.2 and 0.9 and 0.8
Fold of Basal RLU [17]: 1.1 fold and 1.6 fold and 2 fold
Fold of Basal RLU [18]: 1.5 and 0.9
Fold of Basal RLU [19]: 1 fold and 1.1 fold and 1.4 fold
Fold of Basal RLU [20]: 0.6 and 0.5
Fold of Basal RLU [21]: 1.6 fold and 1.4 fold and 1.1 fold
Fold of Basal RLU [22]: 1.2 fold and 1.3 fold
Fold of Basal RLU [23]: 0.9 and 1.2 and 1.1 and 1.7
Fold of Basal RLU [24]: 1.4 and 1.2 and 0.9 and 0.7
Fold of Basal RLU [25]: 0.8 fold and 0.7 fold and 0.9 fold
Fold of Basal RLU [26]: 1 fold and 1.2 fold and 0.6 fold
Fold of Basal RLU [27]: 1.2 fold and 1.1 fold and 1 fold
Fold of Basal RLU [28]: 1.4 fold and 0.8 fold and 1.2 fold
Fold of Basal RLU [29]: 1.3 fold and 1.2 fold and 1.7 fold and 1.4 fold
Fold of Basal RLU [30]: 1.3 fold and 1.5 fold and 2.1 fold
Fold of Basal RLU [31]: 1.1 and 1 and 0.9
Fold of Basal RLU [32]: 1 and 1.1 and 1.3
Fold of Basal RLU [33]: 0.9 fold and 1 fold and 1.1 fold
Fold of Basal RLU [34]: 0.4 and 0.6 and 0.5 and 0.3
Fold of Basal RLU [35]: 1.6 and 1.2 and 1.5
Fold of Basal RLU [36]: 2.3 fold and 1.8 fold and 1.6 fold and 1.5 fold
agonist activity at GPR55, GPR18, GPR119 [37]: no agonist activity
off-target functional activity [37]: except for ‘4936 against ADORA-1

— article PMC11882969 (Nature Communications, 2025)
